Results published in patent publication US12492179B2, “Substituted ethylamine fused heterocyclic mescaline derivatives” (Enveric Biosciences Canada Inc., priority 2022, dated 2025).

Experiments:
5-HT1A receptor [1] = target: T1, 5-HT1A receptor (Homo sapiens, UniProt P08908); assay: 5-HT1A receptor radioligand competition assay (SPA, 8-hydroxy-DPAT); type: binding; conditions: for 5-HT1A receptor binding, in words (competition curves FIGS. 22B-22L): ligand 3 nM to 1 mM
T1 construct: purchased Perkin Elmer 6110501400UA
T1 sequence (P08908 1-422): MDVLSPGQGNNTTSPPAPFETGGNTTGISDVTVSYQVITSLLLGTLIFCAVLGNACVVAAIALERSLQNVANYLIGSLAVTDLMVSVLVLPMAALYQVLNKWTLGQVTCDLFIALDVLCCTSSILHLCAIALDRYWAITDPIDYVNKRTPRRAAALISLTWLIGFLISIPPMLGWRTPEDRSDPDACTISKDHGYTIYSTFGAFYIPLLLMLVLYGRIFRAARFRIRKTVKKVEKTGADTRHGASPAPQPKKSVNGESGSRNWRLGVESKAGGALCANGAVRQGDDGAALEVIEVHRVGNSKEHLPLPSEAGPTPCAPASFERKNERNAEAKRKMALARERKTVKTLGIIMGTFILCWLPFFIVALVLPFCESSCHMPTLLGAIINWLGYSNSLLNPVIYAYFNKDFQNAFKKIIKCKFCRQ

5-HT2A receptor [2] = target: T2, 5-HT2A receptor (Homo sapiens, UniProt P28223); assay: 5-HT2A receptor radioligand competition assay (SPA, [3H]ketanserin); type: binding; conditions: for Ki: SPA competition, 1 nM [3H]ketanserin, membranes containing 5-HT2A; for 5-HT2A receptor binding, in words (competition curves FIGS. 23B-23H): ligand 3 nM to 1 mM
T2 construct: host or cells: HEK-293
T2 sequence (P28223 whole entry): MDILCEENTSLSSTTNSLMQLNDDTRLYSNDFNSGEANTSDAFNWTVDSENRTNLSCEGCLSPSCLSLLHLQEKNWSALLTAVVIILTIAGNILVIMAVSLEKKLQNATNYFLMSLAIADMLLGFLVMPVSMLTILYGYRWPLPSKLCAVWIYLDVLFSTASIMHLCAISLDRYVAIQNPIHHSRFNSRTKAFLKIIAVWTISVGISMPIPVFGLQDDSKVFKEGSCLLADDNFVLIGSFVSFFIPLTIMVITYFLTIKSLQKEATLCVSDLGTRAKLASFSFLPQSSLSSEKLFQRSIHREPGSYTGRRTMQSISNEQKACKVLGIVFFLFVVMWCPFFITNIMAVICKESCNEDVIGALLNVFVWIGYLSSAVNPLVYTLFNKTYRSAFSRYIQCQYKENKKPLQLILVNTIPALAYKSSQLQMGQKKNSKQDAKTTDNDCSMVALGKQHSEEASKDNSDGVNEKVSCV

5-HT1A receptor [3] = target: T1, 5-HT1A receptor; assay: Eurofins Cerep competition binding assay at 5-HT1A receptor; conditions: test ligand 10 μM; [3H]8-OH-DPAT 0.5 nM; recombinant receptor, HEK-293 membranes
5-HT2A receptor [4] = target: T2, 5-HT2A receptor; type: binding; conditions: test ligand 10 μM; [125I](±)DOI 0.1 nM; recombinant receptor, HEK-293 membranes
5-HT2B receptor = target: T3, 5-HT2B receptor (Homo sapiens, UniProt P41595); assay: Eurofins Cerep competition binding assay at 5-HT2B receptor; conditions: test ligand 10 μM; [3H]mesulergine 2 nM; recombinant receptor, CHO membranes
T3 construct: host or cells: CHO
T3 sequence (P41595 whole entry): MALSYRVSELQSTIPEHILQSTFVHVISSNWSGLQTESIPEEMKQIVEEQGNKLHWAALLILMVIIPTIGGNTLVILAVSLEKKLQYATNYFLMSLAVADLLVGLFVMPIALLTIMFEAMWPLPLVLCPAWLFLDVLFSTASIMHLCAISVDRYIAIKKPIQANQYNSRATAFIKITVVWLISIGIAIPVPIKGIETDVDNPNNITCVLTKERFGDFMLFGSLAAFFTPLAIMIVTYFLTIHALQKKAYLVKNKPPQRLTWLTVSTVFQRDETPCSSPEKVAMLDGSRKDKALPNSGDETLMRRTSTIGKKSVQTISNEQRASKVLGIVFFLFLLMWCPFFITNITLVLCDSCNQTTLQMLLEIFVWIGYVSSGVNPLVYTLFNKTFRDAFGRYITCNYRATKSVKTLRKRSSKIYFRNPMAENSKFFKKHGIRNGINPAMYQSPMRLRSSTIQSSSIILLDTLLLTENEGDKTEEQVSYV

5-HT2C receptor = target: T4, 5-HT2C receptor (Homo sapiens, UniProt P28335); assay: Eurofins Cerep competition binding assay at 5-HT2C receptor; conditions: test ligand 10 μM; [125I](±)DOI 0.1 nM; recombinant receptor, HEK-293 membranes
T4 construct: host or cells: HEK-293
T4 sequence (P28335 33-458): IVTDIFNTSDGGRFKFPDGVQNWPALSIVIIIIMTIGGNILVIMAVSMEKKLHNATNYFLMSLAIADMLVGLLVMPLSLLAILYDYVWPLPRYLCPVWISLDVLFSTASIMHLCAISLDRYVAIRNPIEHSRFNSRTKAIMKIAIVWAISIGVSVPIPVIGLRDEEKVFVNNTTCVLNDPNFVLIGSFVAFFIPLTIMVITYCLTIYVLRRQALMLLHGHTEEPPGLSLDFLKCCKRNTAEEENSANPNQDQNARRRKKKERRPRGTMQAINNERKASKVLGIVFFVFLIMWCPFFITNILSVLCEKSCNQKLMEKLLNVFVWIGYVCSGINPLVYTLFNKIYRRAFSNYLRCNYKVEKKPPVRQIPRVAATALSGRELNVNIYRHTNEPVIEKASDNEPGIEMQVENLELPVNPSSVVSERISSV

alpha2A receptor = target: T5, alpha2A receptor (Homo sapiens, UniProt P08913); assay: Eurofins Cerep competition binding assay at alpha2A receptor; conditions: test ligand 10 μM; [3H]RX 821002 1 nM; recombinant receptor, CHO membranes; read-out: α-2A, percent of control-specific binding
T5 construct: host or cells: CHO
T5 sequence (P08913 1-465): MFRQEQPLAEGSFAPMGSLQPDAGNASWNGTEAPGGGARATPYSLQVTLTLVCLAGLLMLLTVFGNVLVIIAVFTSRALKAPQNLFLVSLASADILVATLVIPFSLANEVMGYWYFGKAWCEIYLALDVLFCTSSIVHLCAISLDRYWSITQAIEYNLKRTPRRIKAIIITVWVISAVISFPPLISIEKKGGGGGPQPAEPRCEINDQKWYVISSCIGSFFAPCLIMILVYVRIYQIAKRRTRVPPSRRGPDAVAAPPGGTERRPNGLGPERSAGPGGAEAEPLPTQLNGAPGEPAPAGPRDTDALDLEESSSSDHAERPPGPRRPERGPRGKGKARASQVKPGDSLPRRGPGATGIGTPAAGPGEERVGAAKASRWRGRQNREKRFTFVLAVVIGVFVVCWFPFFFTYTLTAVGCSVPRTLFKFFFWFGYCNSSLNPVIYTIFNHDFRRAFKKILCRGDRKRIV

D2 receptor = target: T6, D2 receptor (Homo sapiens, UniProt P14416); assay: Eurofins Cerep competition binding assay at D2 receptor; conditions: test ligand 10 μM; [3H]methylspiperone 0.3 nM; recombinant receptor, HEK-293 membranes
T6 construct: host or cells: HEK-293
T6 sequence (P14416 1-414 isoform P14416-2): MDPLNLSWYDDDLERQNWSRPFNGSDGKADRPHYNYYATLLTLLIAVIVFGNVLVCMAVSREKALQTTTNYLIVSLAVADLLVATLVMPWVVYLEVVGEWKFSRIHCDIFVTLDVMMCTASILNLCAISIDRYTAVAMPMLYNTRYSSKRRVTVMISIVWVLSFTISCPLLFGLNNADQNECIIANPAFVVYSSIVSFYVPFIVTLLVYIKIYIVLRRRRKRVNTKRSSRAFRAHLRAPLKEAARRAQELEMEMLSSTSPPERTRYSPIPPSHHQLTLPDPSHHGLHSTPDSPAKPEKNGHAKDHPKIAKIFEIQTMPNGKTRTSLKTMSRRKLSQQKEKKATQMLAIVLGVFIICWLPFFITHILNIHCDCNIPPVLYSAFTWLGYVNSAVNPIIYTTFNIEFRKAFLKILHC

D3 receptor = target: T7, D3 receptor (Homo sapiens, UniProt P35462); assay: Eurofins Cerep competition binding assay at D3 receptor; conditions: test ligand 10 μM; [3H]methylspiperone […]; recombinant receptor, CHO membranes
T7 construct: host or cells: CHO
T7 sequence (P35462 whole entry): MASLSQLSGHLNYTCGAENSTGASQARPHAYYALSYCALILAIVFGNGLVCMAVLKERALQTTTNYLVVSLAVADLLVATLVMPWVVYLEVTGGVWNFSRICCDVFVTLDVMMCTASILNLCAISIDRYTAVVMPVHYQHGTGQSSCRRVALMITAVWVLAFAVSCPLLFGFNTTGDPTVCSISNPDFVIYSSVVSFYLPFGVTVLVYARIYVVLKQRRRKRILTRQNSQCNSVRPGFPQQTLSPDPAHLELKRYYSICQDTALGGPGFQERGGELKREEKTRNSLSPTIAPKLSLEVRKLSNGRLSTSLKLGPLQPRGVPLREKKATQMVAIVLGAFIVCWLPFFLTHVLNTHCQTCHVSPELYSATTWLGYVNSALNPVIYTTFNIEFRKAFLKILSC

MT1 receptor = target: T8, MT1 receptor (Homo sapiens, UniProt P48039); assay: Eurofins Cerep competition binding assay at MT1 receptor; conditions: test ligand 10 μM; [125I]2-iodomelatonin 0.01 nM; recombinant receptor, CHO membranes
T8 construct: host or cells: CHO
T8 sequence (P48039 whole entry): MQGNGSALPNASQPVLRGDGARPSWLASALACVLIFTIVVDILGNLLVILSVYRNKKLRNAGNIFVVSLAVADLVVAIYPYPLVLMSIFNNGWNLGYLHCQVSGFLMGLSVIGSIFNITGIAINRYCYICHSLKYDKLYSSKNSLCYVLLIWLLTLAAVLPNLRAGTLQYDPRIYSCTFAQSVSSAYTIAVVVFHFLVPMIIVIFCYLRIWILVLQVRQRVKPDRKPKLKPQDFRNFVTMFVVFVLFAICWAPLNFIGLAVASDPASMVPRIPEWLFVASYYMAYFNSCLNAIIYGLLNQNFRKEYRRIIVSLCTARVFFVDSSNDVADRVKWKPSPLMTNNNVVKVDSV

[5] = target: T9, serotonin transporter (SERT) (Homo sapiens, UniProt P31645); type: binding
T9 construct: host or cells: CHO
T9 sequence (P31645 whole entry): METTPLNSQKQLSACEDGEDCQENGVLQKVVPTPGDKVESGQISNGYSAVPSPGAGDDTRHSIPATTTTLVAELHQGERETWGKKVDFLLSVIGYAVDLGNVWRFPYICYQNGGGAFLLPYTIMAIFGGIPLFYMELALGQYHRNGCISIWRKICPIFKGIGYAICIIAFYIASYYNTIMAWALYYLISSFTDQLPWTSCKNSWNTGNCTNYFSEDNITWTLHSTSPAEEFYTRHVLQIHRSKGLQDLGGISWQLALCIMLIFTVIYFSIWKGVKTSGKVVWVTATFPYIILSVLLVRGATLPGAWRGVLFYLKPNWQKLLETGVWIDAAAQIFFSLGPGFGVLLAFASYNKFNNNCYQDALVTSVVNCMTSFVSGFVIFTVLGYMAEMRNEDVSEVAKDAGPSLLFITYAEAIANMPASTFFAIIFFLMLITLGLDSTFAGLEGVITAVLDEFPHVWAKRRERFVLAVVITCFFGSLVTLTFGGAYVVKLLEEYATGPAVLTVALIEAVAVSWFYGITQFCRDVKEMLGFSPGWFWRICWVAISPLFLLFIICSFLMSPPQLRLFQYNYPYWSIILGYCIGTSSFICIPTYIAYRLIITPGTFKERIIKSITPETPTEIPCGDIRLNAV

[6] = target: T10, dopamine transporter (DAT) (Homo sapiens, UniProt Q01959); assay: Eurofins Cerep competition binding assay at dopamine transporter; conditions: test ligand 10 μM; [3H]BTCP 4 nM; recombinant transporter, CHO membranes
T10 construct: host or cells: CHO
T10 sequence (Q01959 whole entry): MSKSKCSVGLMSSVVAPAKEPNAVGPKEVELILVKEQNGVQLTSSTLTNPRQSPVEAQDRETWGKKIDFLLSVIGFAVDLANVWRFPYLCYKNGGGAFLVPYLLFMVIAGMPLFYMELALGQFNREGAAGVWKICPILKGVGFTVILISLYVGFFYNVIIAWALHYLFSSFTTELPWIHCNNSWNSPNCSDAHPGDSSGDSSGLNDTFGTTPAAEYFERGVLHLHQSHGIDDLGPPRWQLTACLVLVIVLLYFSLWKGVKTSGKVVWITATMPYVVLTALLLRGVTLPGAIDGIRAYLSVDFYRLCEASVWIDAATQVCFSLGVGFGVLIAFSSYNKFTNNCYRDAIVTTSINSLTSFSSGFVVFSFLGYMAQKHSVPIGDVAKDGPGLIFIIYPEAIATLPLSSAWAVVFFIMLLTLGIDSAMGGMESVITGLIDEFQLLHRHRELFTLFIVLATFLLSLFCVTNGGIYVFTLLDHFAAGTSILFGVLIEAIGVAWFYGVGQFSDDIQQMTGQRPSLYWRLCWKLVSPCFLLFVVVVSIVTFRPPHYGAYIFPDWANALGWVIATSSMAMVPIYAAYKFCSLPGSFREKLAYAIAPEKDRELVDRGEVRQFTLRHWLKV

[7] = target: T11, norepinephrine transporter (NET) (Homo sapiens, UniProt P23975); assay: Eurofins Cerep competition binding assay at norepinephrine transporter; conditions: test ligand 10 μM; [3H]nisoxetine 1 nM; recombinant transporter, CHO membranes
T11 construct: host or cells: CHO
T11 sequence (P23975 whole entry): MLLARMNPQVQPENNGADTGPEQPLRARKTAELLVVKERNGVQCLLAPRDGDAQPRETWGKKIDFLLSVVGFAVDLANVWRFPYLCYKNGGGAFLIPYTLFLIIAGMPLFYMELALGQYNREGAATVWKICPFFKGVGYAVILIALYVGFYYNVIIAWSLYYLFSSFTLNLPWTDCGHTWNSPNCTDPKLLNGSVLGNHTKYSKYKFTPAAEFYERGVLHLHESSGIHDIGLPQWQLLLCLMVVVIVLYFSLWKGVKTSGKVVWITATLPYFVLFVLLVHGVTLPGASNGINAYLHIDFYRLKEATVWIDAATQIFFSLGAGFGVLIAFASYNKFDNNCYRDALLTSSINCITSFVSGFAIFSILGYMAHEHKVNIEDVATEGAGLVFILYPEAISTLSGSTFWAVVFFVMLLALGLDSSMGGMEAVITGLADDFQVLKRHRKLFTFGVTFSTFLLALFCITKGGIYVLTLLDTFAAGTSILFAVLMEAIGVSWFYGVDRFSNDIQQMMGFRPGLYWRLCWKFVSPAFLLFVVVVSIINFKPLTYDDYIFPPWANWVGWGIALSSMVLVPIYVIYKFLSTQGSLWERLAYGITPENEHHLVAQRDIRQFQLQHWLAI

CC(C(=O)N1CCCC1)c1ccc2c(c1)OCO2 (racemic) [Ax(II)]
Ki (5-HT1A receptor [1]): 108 µM
Ki (5-HT2A receptor [2]): 591 µM
HT1A, percent of control-specific binding (5-HT1A receptor [3]): 3%
HT2A, percent of control-specific binding (5-HT2A receptor [4]): 0%
HT2B, percent of control-specific binding (5-HT2B receptor): 5%
HT2C, percent of control-specific binding (5-HT2C receptor): 0%
inhibition at 10 µM (alpha2A receptor): 0%
D2, percent of control-specific binding (D2 receptor): 0%
D3, percent of control-specific binding (D3 receptor): 0%
MT1, percent of control-specific binding (MT1 receptor): 5%
SERT, percent of control-specific binding [5]: 2%
DAT, percent of control-specific binding [6]: 5%
NET, percent of control-specific binding [7]: 0%

CC(C(=O)N(C)Cc1ccccc1)c1ccc2c(c1)OCO2 (racemic) [Ax(V)]
Ki (5-HT1A receptor [1]): 186 µM
Ki (5-HT2A receptor [2]): 83 µM
HT1A, percent of control-specific binding (5-HT1A receptor [3]): 2%
HT2A, percent of control-specific binding (5-HT2A receptor [4]): 2%
HT2B, percent of control-specific binding (5-HT2B receptor): 30%
HT2C, percent of control-specific binding (5-HT2C receptor): 16%
inhibition at 10 µM (alpha2A receptor): 0%
D2, percent of control-specific binding (D2 receptor): 0%
D3, percent of control-specific binding (D3 receptor): 8%
MT1, percent of control-specific binding (MT1 receptor): 55%
SERT, percent of control-specific binding [5]: 0%
DAT, percent of control-specific binding [6]: 71%
NET, percent of control-specific binding [7]: 13%

CC(CN1CCCC1)c1ccc2c(c1)OCO2 (racemic) [Bx(II)]
Ki (5-HT1A receptor [1]): 14 µM
HT1A, percent of control-specific binding (5-HT1A receptor [3]): 36%
HT2A, percent of control-specific binding (5-HT2A receptor [4]): 10%
HT2B, percent of control-specific binding (5-HT2B receptor): 38%
HT2C, percent of control-specific binding (5-HT2C receptor): 52%
inhibition at 10 µM (alpha2A receptor): 19%
D2, percent of control-specific binding (D2 receptor): 6%
D3, percent of control-specific binding (D3 receptor): 14%
MT1, percent of control-specific binding (MT1 receptor): 0%
SERT, percent of control-specific binding [5]: 81%
DAT, percent of control-specific binding [6]: 79%
NET, percent of control-specific binding [7]: 9%

CC(CN(C)Cc1ccccc1)c1ccc2c(c1)OCO2 (racemic) [Bx(V)]
Ki (5-HT1A receptor [1]): 45 µM
5-HT1A receptor binding, in words (competition curves FIGS. 22B-22L) (5-HT1A receptor [1]): above levels observed for negative controls
Ki (5-HT2A receptor [2]): 63 µM
5-HT2A receptor binding, in words (competition curves FIGS. 23B-23H) (5-HT2A receptor [2]): above levels observed for negative control
HT1A, percent of control-specific binding (5-HT1A receptor [3]): 17%
HT2A, percent of control-specific binding (5-HT2A receptor [4]): 13%
HT2B, percent of control-specific binding (5-HT2B receptor): 41%
HT2C, percent of control-specific binding (5-HT2C receptor): 42%
inhibition at 10 µM (alpha2A receptor): 24%
D2, percent of control-specific binding (D2 receptor): 12%
D3, percent of control-specific binding (D3 receptor): 19%
MT1, percent of control-specific binding (MT1 receptor): 9%
SERT, percent of control-specific binding [5]: 46%
DAT, percent of control-specific binding [6]: 78%
NET, percent of control-specific binding [7]: 47%

COc1cc(CCN)c(OC)cc1Br [2C-B, reference compound]
D2, percent of control-specific binding (D2 receptor): 42%

c1cc2c(cc1CC1=NCCO1)OCO2 [C(III)]
Ki (5-HT1A receptor [1]): 31 µM
HT1A, percent of control-specific binding (5-HT1A receptor [3]): 24%
HT2A, percent of control-specific binding (5-HT2A receptor [4]): 0%
HT2B, percent of control-specific binding (5-HT2B receptor): 19%
HT2C, percent of control-specific binding (5-HT2C receptor): 12%
inhibition at 10 µM (alpha2A receptor): 19%
D2, percent of control-specific binding (D2 receptor): 0%
D3, percent of control-specific binding (D3 receptor): 10%
MT1, percent of control-specific binding (MT1 receptor): 12%
SERT, percent of control-specific binding [5]: 0%
DAT, percent of control-specific binding [6]: 19%
NET, percent of control-specific binding [7]: 0%

COc1cc(CC(C)N)c(OC)cc1Br (stereo not drawn) [DOB, reference compound]
D2, percent of control-specific binding (D2 receptor): 9%

CN(C)CCCN1c2ccccc2CCc2ccccc21 [Imipramine, imipramine, reference compound]
SERT, percent of control-specific binding [5]: 98%

CNC(C)Cc1ccc2c(c1)OCO2 (stereo not drawn) [MDMA, reference compound]
D2, percent of control-specific binding (D2 receptor): −10%

CCOc1c(OC)cc(CCN)cc1OC [escaline]
5-HT1A receptor binding, in words (competition curves FIGS. 22B-22L) (5-HT1A receptor [1]): binding to 5-HT1A receptor
D2, percent of control-specific binding (D2 receptor): 5%

CCCOc1c(OC)cc(CCN)cc1OC [proscaline, reference compound]
5-HT1A receptor binding, in words (competition curves FIGS. 22B-22L) (5-HT1A receptor [1]): binding to 5-HT1A receptor

CN(C)CCc1c[nH]c2cccc(O)c12 [psilocin, reference compound]
5-HT2A receptor binding, in words (competition curves FIGS. 23B-23H) (5-HT2A receptor [2]): binding at the 5-HT2A receptor

N[C@@H](Cc1c[nH]c2ccccc12)C(=O)O [tryptophan, reference compound]
5-HT1A receptor binding, in words (competition curves FIGS. 22B-22L) (5-HT1A receptor [1]): no binding
5-HT2A receptor binding, in words (competition curves FIGS. 23B-23H) (5-HT2A receptor [2]): lack of binding at the 5-HT2A receptor
